The nature of this data set: activity coefficient (dimensionless); of the first substance listed, at infinite dilution; xn = mol fraction of the nth substance listed. The conditions noted are these: 87.4 kPa, Liquid, Chromatography, x1 = 0.

This passage reports activity coefficient results from the NIST ThermoML archive (doi:10.1016/j.jct.2014.12.023).

Numbers after ± are expanded uncertainties.

For the molecule `CC(=O)O` [acetic acid] + O=S(=O)([N-]S(=O)(=O)C(F)(F)F)C(F)(F)F.O=S(=O)([N-]S(=O)(=O)C(F)(F)F)C(F)(F)F.c1ccc2cc(C[N+]3(CCCCCCCCC[N+]4(Cc5ccc6ccccc6c5)CCCC4)CCCC3)ccc2c1, the activity coefficient is 0.824 ± 0.04 (313 K), 0.767 ± 0.038 (323 K), 0.746 ± 0.036 (333 K) and 0.74 ± 0.036 (343 K).

With `c1ccncc1` [pyridine] + O=S(=O)([N-]S(=O)(=O)C(F)(F)F)C(F)(F)F.O=S(=O)([N-]S(=O)(=O)C(F)(F)F)C(F)(F)F.c1ccc2cc(C[N+]3(CCCCCCCCC[N+]4(Cc5ccc6ccccc6c5)CCCC4)CCCC3)ccc2c1, the activity coefficient turned out to be 0.263 ± 0.028 (313 K), 0.266 ± 0.028 (323 K), 0.27 ± 0.028 (333 K) and 0.287 ± 0.028 (343 K).

Turning to `Cc1cccc(C)c1` [1,3-dimethylbenzene] + O=S(=O)([N-]S(=O)(=O)C(F)(F)F)C(F)(F)F.O=S(=O)([N-]S(=O)(=O)C(F)(F)F)C(F)(F)F.c1ccc2cc(C[N+]3(CCCCCCCCC[N+]4(Cc5ccc6ccccc6c5)CCCC4)CCCC3)ccc2c1, the activity coefficient is, setting by setting: (313 K) 0.857 ± 0.042; (323 K) 0.924 ± 0.042; (333 K) 0.941 ± 0.042; (343 K) 0.996 ± 0.045.
